Earlier results in article PMC11949389 (Polish Journal of Microbiology, 2025).
Values after ≈ are worked out from the molar mass of the structure shown. Where two headings read alike, the source gives them in different places.

Experiments:
Candida albicans [1] = conditions: Candida albicans; ref Sharifzadeh et al. 2019; Iraji et al. 2020; Shaban et al. 2020; Stringaro et al. 2022; Biernasiuk et al. 2022
Candida dubliniensis = conditions: ref Iraji et al. 2020
Candida glabrata = conditions: Candida glabrata; ref Sharifzadeh et al. 2019; Iraji et al. 2020; Biernasiuk et al. 2022; Stringaro et al. 2022
Candida krusei = conditions: Candida krusei; ref Sharifzadeh et al. 2019; Iraji et al. 2020; Biernasiuk et al. 2022; Stringaro et al. 2022
Candida parapsilosis = conditions: ref Iraji et al. 2020, Biernasiuk et al. 2022
Candida tropicalis = conditions: Candida tropicalis; ref Iraji et al. 2020; Stringaro et al. 2022
Acinetobacter baumannii = conditions: ref Sayout et al. 2020
Escherichia coli = conditions: Escherichia coli; ref Owen et al. 2019; Sayout et al. 2020; Noumi et al. 2023
Klebsiella pneumoniae = conditions: ref Sayout et al. 2020, de Souza et al. 2021, Kwiatkowski et al. 2022
Staphylococcus aureus [2] = conditions: for MIC / tetracycline MIC: S. aureus; for MIC: ref Kwiatkowski et al. (2020); for MIC/Sensitivity: Staphylococcus aureus, ref Kwiatkowski et al. 2020, Sayout et al. 2020, Sousa Silveira et al. 2020, Macêdo et al. 2022, Noumi et al. 2023, Sharma et al. 2023; for tetracycline MIC: ref Sousa Silveira et al. (2020)
[3] = test system: Methicillin-resistant Staphylococcus aureus; conditions: MRSA isolates, ref Kwiatkowski et al. (2020)
[4] = test system: Mupirocin-susceptible Staphylococcus aureus; conditions: ref Kwiatkowski et al. 2019
[5] = test system: Mupirocin-resistant Staphylococcus aureus; conditions: ref Kwiatkowski et al. 2019
Enterobacter aerogenes = conditions: ref Sayout et al. 2020
Enterobacter cloacae = conditions: ref Sayout et al. 2020
Klebsiella oxytoca = conditions: ref Sayout et al. 2020
Salmonella spp. = conditions: ref Sayout et al. 2020
[6] = test system: Vibrio anguillarum, and Vibrio harveyi; conditions: ref Rossi et al. (2021)
Staphylococcus aureus [7] = conditions: ref Mastoor et al. 2022
Pseudomonas aeruginosa = conditions: Pseudomonas aeruginosa; ref Owen et al. 2019; Sim et al. 2019; Noumi et al. 2023
Candida auris [8] = conditions: Candida auris; ref Shaban et al. 2020
Candida albicans [9] = conditions: ref Shaban et al. 2020
Candida auris [10] = conditions: ref Shaban et al. 2020
[11] = in combination with penicillin G

| Molecule | MIC/Sensitivity (Candida albicans [1]) [mg/mL] | MIC/Sensitivity (Candida dubliniensis) [mg/mL] | MIC/Sensitivity (Candida glabrata) [mg/mL] | MIC/Sensitivity (Candida krusei) [mg/mL] | MIC/Sensitivity (Candida parapsilosis) [mg/mL] | MIC/Sensitivity (Candida tropicalis) [mg/mL] | MIC/Sensitivity (Acinetobacter baumannii) [mg/mL] | MIC/Sensitivity (Escherichia coli) [mg/mL] | MIC/Sensitivity (Klebsiella pneumoniae) [mg/mL] | MIC/Sensitivity (Staphylococcus aureus [2]) [mg/mL] | MIC/Sensitivity (Enterobacter cloacae) [mg/mL] | also measured |
| --- | --- | --- | --- | --- | --- | --- | --- | --- | --- | --- | --- | --- |
| CC(C)[C@]12CC(=O)[C@H](C)[C@H]1C2 [Thujone] | 459.7346 to 7355.7536 | 919.4692 to 7355.7536 | 1838.9384 to 14711.5072 | 919.4692 to 7355.7536 | 3677.8768 to 14711.5072 | 919.4692 to 7355.7536 |  |  |  |  |  |  |
| CC12CCC(CC1)C(C)(C)O2 [1,8-Cineole] |  |  |  |  |  |  | 0.00563 (≈ 0.0365 mM) | 0.00281 (≈ 0.0182 mM) | 0.01125 (≈ 0.0729 mM) | 0.00563 to 115.1 | 0.00563 (≈ 0.0365 mM) | MIC (Staphylococcus aureus [2]): 28,800– 57,600 μg/ml; FICI [3, 11]: 0.1; MIC/Sensitivity [4]: 307 mg/mL (≈ 1990 mM); MIC/Sensitivity [5]: 57.56 mg/mL (≈ 373 mM); MIC/Sensitivity (Enterobacter aerogenes): 0.00281 mg/mL (≈ 0.0182 mM); MIC/Sensitivity (Klebsiella oxytoca): 0.00563 mg/mL (≈ 0.0365 mM); MIC/Sensitivity (Salmonella spp.): 0.0075 mg/mL (≈ 0.0486 mM); activity at the tested concentrations [6]: no activity |
| (+)-α-Pinene | 51.7674 to 1716.498 | 103.5348 to 1716.498 | 51.7674 to 1716.498 | 51.7674 to 858.249 | 51.7674 to 429.1245 | 429.1245 to 1716.498 |  |  |  |  |  |  |
| CC(C)[C@@H]1CC[C@@H](C)CC1=O [(–)-Menthone] | 1789.3 to 28628.8 | 894.65 to 14314.4 | 1789.3 to 14314.4 | 3578.6 to 7157.2 | 894.65 to 14314.4 | 1789.3 to 14314.4 |  |  |  |  |  | MIC/Sensitivity [4]: 27.91 mg/mL (≈ 181 mM); MIC/Sensitivity [5]: 6.98 mg/mL (≈ 45.3 mM) |
| O=CC(Br)=Cc1ccccc1 [α-Bromo-trans-cinnamaldehyde] |  |  |  |  |  |  |  |  |  |  |  | Mechanisms of action (Staphylococcus aureus [7]): • Gene expression reduction linked to intracellular adhesion |
| C=CC(C)(CCC=C(C)C)OC(C)=O (stereo not shown) [Linalyl acetate] |  |  |  |  |  |  |  |  |  | 46.9 |  | MIC (Staphylococcus aureus [2]): 28,200–112,600 μg/ml; FICI ([3]; in combination with methicillin): 0.4; FICI [3, 11]: 0.6; MIC/Sensitivity [4]: 450.5 mg/mL |
| CC1CCC(C(C)C)C(O)C1 (stereo not shown) [menthol] |  |  |  |  |  |  |  |  |  |  |  | activity at the tested concentrations [6]: no activity |
| CC(C)[C@@H]1CC[C@@H](C)CC1=O [Menthone] |  |  |  |  |  |  |  |  |  | 27.9 (≈ 181 mM) |  |  |
| CC(C)=CCC[C@@H](C)CCO [(+)-Citronellol] | 49.36 to 1665.9 | 24.68 to 208.2375 | 49.36 to 208.2375 | 100.2625 to 832.95 | 49.36 to 416.475 | 24.68 to 100.2625 |  |  |  |  |  |  |
| CN(C)[C@@H]1C(O)=C(C(N)=O)C(=O)[C@@]2(O)C(O)=C3C(=O)c4c(O)cccc4[C@@](C)(O)[C@H]3C[C@@H]12 [tetracycline, reference compound] |  |  |  |  |  |  |  |  |  |  |  | tetracycline MIC (Staphylococcus aureus [2]; before combination): 0.114 mg/mL; tetracycline MIC (Staphylococcus aureus [2]; combined with thymol): 0.101 mg/mL |
| CC1CC[C@H](C(C)C)[C@@H](O)C1 (single isomer, unassigned; (+)) [(+)-Menthol] | 221.8892 to 7125.456 | 53.1284 to 3562.728 | 26.5642 to 445.341 | 100.0064 to 445.341 | 53.1284 to 890.682 | 100.0064 to 445.341 |  |  |  |  |  |  |
| CC1=CCC(C(C)C)=CC1 [γ-Terpinene] |  |  |  |  |  |  | 0.00488 (≈ 0.0358 mM) |  | 0.00488 (≈ 0.0358 mM) |  | 0.0065 (≈ 0.0477 mM) | MIC/Sensitivity (Campylobacter jejuni; Campylobacter jejuni, ref Šimunović et al. 2020): 1 mg/mL (≈ 7.34 mM); MIC (Campylobacter jejuni; ref Šimunović et al. (2020)): 1,000 μg/ml; MIC/Sensitivity (Enterobacter aerogenes): 0.00488 mg/mL (≈ 0.0358 mM); MIC/Sensitivity (Klebsiella oxytoca): 0.00488 mg/mL (≈ 0.0358 mM); MIC/Sensitivity (Salmonella spp.): 0.0065 mg/mL (≈ 0.0477 mM) |
| CC(C)=CCCC(C)CCO (single isomer, unassigned; (-)) [(–)-Citronellol] | 49.36 to 1665.9 | 24.68 to 208.2375 | 49.36 to 208.2375 | 100.2625 to 1665.9 | 49.36 to 416.475 | 24.68 to 100.2625 |  |  |  |  |  |  |

Continued, in another order:

| MIC/Sensitivity (Candida albicans [1]) [mg/mL] | MIC/Sensitivity (Candida dubliniensis) [mg/mL] | MIC/Sensitivity (Candida glabrata) [mg/mL] | MIC/Sensitivity (Candida krusei) [mg/mL] | MIC/Sensitivity (Candida parapsilosis) [mg/mL] | MIC/Sensitivity (Candida tropicalis) [mg/mL] | MIC/Sensitivity (Acinetobacter baumannii) [mg/mL] | MIC/Sensitivity (Escherichia coli) [mg/mL] | MIC/Sensitivity (Klebsiella pneumoniae) [mg/mL] | MIC/Sensitivity (Staphylococcus aureus [2]) [mg/mL] | MIC/Sensitivity (Enterobacter cloacae) [mg/mL] | Molecule | also measured |
| --- | --- | --- | --- | --- | --- | --- | --- | --- | --- | --- | --- | --- |
|  |  |  |  |  |  | 0.02 (≈ 0.147 mM) | 0.015 (≈ 0.11 mM) | 0.03 (≈ 0.22 mM) |  |  | C=C1C2CCC(C2)C1(C)C (stereo not shown) [Camphene] |  |
| 858.249 to 54927.936 | 858.249 to 27463.968 | 858.249 to 54927.936 | 858.249 to 1716.498 | 429.1245 to 1716.498 | 6865.992 to 27463.968 |  |  |  |  |  | CC1=CCC2CC1C2(C)C (stereo not drawn) [(–)-α-Pinene] |  |
| 8.1738 to 13731.984 | 12.2607 to 1716.498 | 50.4051 to 3432.996 | 8.1738 to 429.1245 | 50.4051 to 213.8811 | 213.8811 to 1716.498 |  |  |  |  |  | (–)-Limonene |  |
| 213.8811 to 13731.984 | 103.5348 to 6865.992 | 103.5348 to 1716.498 | 103.5348 to 429.1245 | 213.8811 to 431.8491 | 103.5348 to 3432.996 | 0.0135 (≈ 0.0991 mM) | 0.00506 (≈ 0.0371 mM) | 0.01013 (≈ 0.0744 mM) | 0.01013 (≈ 0.0744 mM) | 0.00506 (≈ 0.0371 mM) | C=C1CCC2CC1C2(C)C (stereo not drawn) [β-Pinene] | MIC/Sensitivity (Enterobacter aerogenes): 0.02025 mg/mL (≈ 0.149 mM); MIC/Sensitivity (Klebsiella oxytoca): 0.0135 mg/mL (≈ 0.0991 mM); MIC/Sensitivity (Salmonella spp.): 0.0081 mg/mL (≈ 0.0595 mM); MIC/Sensitivity (Pseudomonas aeruginosa): 0.01013 mg/mL (≈ 0.0744 mM) |
| 494.7475 to 3957.98 | 246.6126 to 1978.99 | 59.3697 to 989.495 | 246.6126 to 3957.98 | 59.3697 to 1978.99 | 246.6126 to 989.495 | 0.01017 (≈ 0.0668 mM) | 0.00763 (≈ 0.0501 mM) | 0.00508 (≈ 0.0334 mM) | 0.00763 (≈ 0.0501 mM) | 0.0061 (≈ 0.0401 mM) | CC12CCC(CC1=O)C2(C)C (stereo not shown) [Camphor] | MIC/Sensitivity (Enterobacter aerogenes): 0.01525 mg/mL (≈ 0.1 mM); MIC/Sensitivity (Klebsiella oxytoca): 0.01017 mg/mL (≈ 0.0668 mM); MIC/Sensitivity (Salmonella spp.): 0.0061 mg/mL (≈ 0.0401 mM); MIC/Sensitivity (Pseudomonas aeruginosa): 0.0061 mg/mL (≈ 0.0401 mM) |
|  |  |  |  |  |  |  | 0.00194 (≈ 0.0142 mM) | 0.0155 (≈ 0.114 mM) |  | 0.00775 (≈ 0.0569 mM) | C=CC(=C)CCC=C(C)C [Myrcene] |  |
|  |  |  |  |  |  | 0.00758 (≈ 0.0505 mM) | 0.01138 (≈ 0.0758 mM) | 0.01517 (≈ 0.101 mM) | 0.01138 (≈ 0.0758 mM) | 0.0091 (≈ 0.0606 mM) | C=C(C)C1CC=C(C)C(=O)C1 (stereo not shown) [Carvone] | MIC/Sensitivity (Enterobacter aerogenes): 0.00569 mg/mL (≈ 0.0379 mM); MIC/Sensitivity (Klebsiella oxytoca): 0.01138 mg/mL (≈ 0.0758 mM); MIC/Sensitivity (Salmonella spp.): 0.02275 mg/mL (≈ 0.151 mM); MIC/Sensitivity (Pseudomonas aeruginosa): 0.0091 mg/mL (≈ 0.0606 mM) |
|  |  |  |  |  |  | 0.01188 (≈ 0.0872 mM) | 0.01188 (≈ 0.0872 mM) | 0.02375 (≈ 0.174 mM) | 0.01188 (≈ 0.0872 mM) | 0.01188 (≈ 0.0872 mM) | CC1=CCC2CC1C2(C)C (stereo not drawn) [α-Pinene] | activity at the tested concentrations [6]: no activity |
| 1.25 (≈ 7.01 mM) |  |  |  |  |  |  |  |  |  |  | C=CCc1ccc(OC)c(OC)c1 [Methyl eugenol] | MIC/Sensitivity (Candida auris [8]): 1.25 mg/mL (≈ 7.01 mM); Mechanisms of action (Candida albicans [9]): • Reduced proteinase production; Mechanisms of action (Candida auris [10]): • Reduced proteinase production and host cell adherence |
